Measured values reported in ChEMBL document CHEMBL5696442, “Discovery of type II inhibitors of TGFβ-activated kinase 1 (TAK1) and mitogen-activated protein kinase kinase kinase kinase 2 (MAP4K2)” (J Med Chem, 2015).
Active and inactive are the calls of the source. The calls are words filed in the database; no cut-off is given here.

Experiments:
[1] = target: Epidermal growth factor receptor (Homo sapiens) (UniProt P00533); test: Inhibition of EGFR Lys1 labeling site harbouring GLWIPEGEKVKIPVAIKELR in human Huh-7 cell lysate at 1 uM by KiNativ Profiling analysis relative to control; type: subcellular
[2] = target: Mitogen-activated protein kinase 8 (Homo sapiens, UniProt P45983); test: Inhibition of JNK1 Lys2 labeling site in human Huh-7 cells at 1 uM by KiNativ Profiling analysis relative to control; type: cell-based
[3] = target: T1, Serine/threonine-protein kinase 3 (Homo sapiens) (UniProt Q13188); test: Inhibition of MST2 Lys2 labeling site harbouring IHRDIKAGNILLNTEGHAK in human Huh-7 cells at 1 uM by KiNativ Profiling analysis relative to control; type: cell-based
T1 sequence (whole entry): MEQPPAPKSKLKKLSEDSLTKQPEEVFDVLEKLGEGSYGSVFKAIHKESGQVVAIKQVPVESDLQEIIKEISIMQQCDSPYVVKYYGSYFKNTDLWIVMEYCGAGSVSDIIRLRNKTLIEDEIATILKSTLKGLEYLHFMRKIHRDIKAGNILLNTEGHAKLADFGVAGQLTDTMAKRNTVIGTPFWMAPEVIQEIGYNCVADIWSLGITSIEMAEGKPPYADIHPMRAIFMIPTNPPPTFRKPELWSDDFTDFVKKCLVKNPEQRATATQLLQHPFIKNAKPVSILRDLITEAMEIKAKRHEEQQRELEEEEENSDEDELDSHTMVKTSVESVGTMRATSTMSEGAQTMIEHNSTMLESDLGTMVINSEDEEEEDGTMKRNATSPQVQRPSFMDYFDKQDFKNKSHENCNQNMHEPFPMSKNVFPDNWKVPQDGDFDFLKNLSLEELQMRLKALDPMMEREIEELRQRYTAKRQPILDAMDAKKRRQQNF

[4] = target: T2, Phosphatidylinositol 5-phosphate 4-kinase type-2 alpha (Homo sapiens) (UniProt P48426); test: Inhibition of PIP5K2A LIP labeling site in human Huh-7 cells at 10 uM by KiNativ Profiling analysis relative to control; type: cell-based
T2 sequence (whole entry): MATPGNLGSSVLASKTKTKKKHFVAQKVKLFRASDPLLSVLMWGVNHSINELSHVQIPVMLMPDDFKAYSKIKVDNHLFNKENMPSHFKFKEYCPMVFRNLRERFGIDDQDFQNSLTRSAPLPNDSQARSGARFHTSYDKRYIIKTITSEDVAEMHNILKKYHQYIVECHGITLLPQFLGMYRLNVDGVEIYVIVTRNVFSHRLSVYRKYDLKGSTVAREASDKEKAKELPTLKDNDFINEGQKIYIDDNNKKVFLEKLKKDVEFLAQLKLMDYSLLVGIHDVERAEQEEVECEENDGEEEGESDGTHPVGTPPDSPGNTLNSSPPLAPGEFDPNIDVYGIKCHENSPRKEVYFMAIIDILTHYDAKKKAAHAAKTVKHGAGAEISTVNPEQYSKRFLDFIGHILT

[5] = target: T3, Mitogen-activated protein kinase kinase kinase kinase 2 (Homo sapiens) (UniProt Q12851); test: Inhibition of MAP4K2 Lys1 labeling site in human A-375 cells at 5 uM by KiNativ Profiling analysis relative to control; type: cell-based
T3 sequence (whole entry): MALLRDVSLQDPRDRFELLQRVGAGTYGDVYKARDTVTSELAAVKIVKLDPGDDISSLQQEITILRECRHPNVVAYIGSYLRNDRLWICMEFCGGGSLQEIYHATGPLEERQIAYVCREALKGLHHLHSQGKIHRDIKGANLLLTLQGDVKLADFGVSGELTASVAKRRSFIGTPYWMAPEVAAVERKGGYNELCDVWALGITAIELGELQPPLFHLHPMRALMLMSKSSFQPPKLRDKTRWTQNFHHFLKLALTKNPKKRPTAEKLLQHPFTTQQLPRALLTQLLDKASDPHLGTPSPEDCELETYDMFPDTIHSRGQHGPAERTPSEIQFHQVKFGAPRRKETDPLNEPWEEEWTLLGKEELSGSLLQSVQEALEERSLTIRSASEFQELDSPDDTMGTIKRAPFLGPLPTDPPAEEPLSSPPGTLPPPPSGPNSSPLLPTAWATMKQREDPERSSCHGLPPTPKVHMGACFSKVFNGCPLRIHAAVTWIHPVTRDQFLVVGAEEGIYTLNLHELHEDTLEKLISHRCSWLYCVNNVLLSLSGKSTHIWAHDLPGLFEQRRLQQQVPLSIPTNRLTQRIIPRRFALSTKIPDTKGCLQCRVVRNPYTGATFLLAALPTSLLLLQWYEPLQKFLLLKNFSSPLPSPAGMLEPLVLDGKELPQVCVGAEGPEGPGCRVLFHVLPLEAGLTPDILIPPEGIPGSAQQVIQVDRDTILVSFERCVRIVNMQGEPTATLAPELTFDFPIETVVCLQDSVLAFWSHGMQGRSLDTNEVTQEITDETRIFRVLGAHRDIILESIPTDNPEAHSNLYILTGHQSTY

[6] = target: Cyclin-dependent kinase 11B (Homo sapiens) (UniProt P21127); test: Inhibition of CDK11 Lys2 labeling site in human A-375 cells at 0.5 uM by KiNativ Profiling analysis relative to control; type: cell-based
[7] = target: Serine/threonine-protein kinase 25 (Homo sapiens) (UniProt O00506); test: Inhibition of YSK1 ATP labeling site in human Huh-7 cells at 1 uM by KiNativ Profiling analysis relative to control; type: cell-based
[8] = system: Epidermal growth factor receptor (Homo sapiens), P00533 [UNDEFINED MUTATION]; conditions: dose 10.0 µM
[9] = target: Ribosomal protein S6 kinase alpha-3 (Homo sapiens) (UniProt P51812); test: Inhibition of RSK2 Domain 2 K1 labeling site in human Huh-7 cells at 10 uM by KiNativ Profiling analysis relative to control; type: cell-based
[10] = system: Tyrosine-protein kinase ABL1 (Homo sapiens), P00519 [T315I]; test: Inhibition of phosphorylated ABL1 T315I mutant (unknown origin) at 1 uM by Ambit Kinomescan binding assay relative to control; values are per cent of control
[11] = system: Tyrosine-protein kinase ABL1 (Homo sapiens), P00519 [H396P]; test: Inhibition of phosphorylated ABL1 H396P mutant (unknown origin) at 1 uM by Ambit Kinomescan binding assay relative to control; values are per cent of control

Sequence of Serine/threonine-protein kinase 25 (Homo sapiens) (O00506 whole entry, looked up): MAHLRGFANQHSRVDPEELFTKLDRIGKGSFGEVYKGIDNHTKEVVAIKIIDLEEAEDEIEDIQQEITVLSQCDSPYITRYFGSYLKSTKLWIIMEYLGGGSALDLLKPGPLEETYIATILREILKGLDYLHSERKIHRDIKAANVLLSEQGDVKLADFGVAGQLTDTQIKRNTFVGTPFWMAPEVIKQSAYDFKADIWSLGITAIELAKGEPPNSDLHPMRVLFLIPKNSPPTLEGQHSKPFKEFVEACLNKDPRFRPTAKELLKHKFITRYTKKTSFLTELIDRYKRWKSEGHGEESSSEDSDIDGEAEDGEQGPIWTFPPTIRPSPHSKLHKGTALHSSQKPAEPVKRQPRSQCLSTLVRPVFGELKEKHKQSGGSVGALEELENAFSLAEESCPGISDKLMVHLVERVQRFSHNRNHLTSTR
Sequence of Ribosomal protein S6 kinase alpha-3 (Homo sapiens) (P51812 whole entry, the tested form may be a part): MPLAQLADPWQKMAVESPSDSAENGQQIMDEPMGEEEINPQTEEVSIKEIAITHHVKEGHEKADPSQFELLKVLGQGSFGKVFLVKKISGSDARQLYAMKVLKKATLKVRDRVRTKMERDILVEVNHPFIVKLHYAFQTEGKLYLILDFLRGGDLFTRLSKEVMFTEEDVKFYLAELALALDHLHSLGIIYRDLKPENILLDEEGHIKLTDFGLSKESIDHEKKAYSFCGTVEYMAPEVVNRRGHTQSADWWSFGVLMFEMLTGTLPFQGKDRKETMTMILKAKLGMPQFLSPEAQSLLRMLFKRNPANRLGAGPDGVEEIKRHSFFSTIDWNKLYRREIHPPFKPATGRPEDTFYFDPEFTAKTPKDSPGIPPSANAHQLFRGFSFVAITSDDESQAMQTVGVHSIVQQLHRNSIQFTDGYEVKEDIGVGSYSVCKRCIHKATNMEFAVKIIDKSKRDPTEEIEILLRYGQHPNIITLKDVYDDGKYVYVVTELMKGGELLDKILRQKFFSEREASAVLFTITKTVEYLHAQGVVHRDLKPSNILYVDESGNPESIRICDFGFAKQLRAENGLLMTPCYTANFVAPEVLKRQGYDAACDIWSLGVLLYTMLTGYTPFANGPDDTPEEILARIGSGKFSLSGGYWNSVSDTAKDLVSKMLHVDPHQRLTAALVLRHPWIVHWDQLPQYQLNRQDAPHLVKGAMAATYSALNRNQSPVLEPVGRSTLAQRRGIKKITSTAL
Sequence of Cyclin-dependent kinase 11B (Homo sapiens) (P21127 whole entry): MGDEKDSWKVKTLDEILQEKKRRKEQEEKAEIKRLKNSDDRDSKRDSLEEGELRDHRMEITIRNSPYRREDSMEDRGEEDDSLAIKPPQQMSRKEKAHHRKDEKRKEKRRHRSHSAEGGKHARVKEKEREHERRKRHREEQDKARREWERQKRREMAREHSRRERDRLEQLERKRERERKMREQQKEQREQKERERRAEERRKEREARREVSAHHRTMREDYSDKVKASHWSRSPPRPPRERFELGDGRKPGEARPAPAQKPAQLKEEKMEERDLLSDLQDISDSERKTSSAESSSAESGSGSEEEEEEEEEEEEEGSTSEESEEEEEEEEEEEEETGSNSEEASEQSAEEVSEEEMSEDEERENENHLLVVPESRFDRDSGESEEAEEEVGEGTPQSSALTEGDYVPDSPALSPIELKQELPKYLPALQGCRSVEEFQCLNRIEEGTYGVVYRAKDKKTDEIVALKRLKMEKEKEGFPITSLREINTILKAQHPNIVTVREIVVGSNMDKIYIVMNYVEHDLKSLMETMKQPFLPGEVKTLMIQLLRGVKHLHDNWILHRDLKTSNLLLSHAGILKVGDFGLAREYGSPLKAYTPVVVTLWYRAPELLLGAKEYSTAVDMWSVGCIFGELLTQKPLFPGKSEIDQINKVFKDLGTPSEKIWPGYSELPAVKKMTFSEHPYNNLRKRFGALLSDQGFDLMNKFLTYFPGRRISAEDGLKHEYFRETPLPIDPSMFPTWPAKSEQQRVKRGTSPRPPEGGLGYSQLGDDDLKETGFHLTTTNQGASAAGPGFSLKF
Sequence of Mitogen-activated protein kinase 8 (P45983 whole entry): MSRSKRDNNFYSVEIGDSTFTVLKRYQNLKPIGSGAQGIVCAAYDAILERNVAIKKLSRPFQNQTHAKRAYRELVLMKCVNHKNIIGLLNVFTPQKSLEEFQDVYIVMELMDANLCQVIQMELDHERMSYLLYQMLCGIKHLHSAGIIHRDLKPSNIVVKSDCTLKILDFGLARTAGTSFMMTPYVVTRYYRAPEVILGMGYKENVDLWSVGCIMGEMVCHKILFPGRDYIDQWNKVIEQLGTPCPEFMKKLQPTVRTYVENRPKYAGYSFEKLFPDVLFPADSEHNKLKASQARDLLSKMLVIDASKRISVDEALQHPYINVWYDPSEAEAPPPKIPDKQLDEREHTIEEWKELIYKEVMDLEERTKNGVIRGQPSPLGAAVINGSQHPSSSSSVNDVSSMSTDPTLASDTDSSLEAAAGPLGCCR
Sequence of Epidermal growth factor receptor (Homo sapiens) (P00533 whole entry): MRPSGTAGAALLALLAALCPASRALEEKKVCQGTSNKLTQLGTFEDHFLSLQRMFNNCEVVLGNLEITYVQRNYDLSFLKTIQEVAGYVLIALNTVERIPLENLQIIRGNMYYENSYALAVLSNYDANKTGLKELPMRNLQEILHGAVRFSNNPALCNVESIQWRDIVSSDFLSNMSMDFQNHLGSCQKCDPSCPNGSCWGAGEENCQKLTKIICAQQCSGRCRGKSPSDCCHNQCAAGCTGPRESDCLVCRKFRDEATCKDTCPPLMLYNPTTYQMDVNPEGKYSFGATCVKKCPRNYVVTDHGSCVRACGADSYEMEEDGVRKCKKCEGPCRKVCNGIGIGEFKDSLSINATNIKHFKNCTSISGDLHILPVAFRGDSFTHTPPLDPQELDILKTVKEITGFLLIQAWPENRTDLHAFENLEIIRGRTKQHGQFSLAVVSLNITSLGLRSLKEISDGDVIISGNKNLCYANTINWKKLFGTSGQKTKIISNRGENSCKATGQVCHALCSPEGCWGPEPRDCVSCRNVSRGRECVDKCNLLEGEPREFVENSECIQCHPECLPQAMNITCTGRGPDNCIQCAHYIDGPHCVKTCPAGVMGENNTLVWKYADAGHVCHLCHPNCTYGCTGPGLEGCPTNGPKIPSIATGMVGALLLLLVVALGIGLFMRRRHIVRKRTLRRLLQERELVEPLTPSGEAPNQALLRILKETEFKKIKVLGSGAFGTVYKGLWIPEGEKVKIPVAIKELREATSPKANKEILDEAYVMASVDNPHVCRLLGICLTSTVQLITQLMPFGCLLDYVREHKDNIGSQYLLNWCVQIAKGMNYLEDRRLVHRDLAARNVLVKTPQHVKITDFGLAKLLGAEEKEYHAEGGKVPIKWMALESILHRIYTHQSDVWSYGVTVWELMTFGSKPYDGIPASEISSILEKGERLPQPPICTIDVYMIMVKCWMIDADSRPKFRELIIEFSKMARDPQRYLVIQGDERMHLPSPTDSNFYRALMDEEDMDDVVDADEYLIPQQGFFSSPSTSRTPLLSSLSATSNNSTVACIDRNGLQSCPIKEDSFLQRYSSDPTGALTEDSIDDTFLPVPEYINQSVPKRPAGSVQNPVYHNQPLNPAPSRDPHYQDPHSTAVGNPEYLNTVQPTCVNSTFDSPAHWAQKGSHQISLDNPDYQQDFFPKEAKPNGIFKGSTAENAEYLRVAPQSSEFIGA
Sequence of Epidermal growth factor receptor (Homo sapiens), P00533 [UNDEFINED MUTATION] (P00533 whole entry, looked up, change not shown, the tested form may be a part): as the sequence (P00533 whole entry) above

Structure (SMILES): CNc1cc(Oc2cc(C(=O)Nc3cc(N4CCN(C)CC4)cc(C(F)(F)F)c3)ccc2C)ncn1
- inhibition [1]: 9.9%
- inhibition [2]: 14.5%
- inhibition [3]: -0.8%

Structure (SMILES): CCN1CCN(Cc2ccc(NC(=O)c3ccc(C)c(Oc4ccnc5[nH]ccc45)c3)cc2C(F)(F)F)CC1
- inhibition [4]: 0%
- inhibition [5]: > 99.5%
- inhibition [6]: 51.2%
- inhibition [7]: 18%
- inhibition [8]: 1.2%
- inhibition [9]: inactive

Structure (SMILES): CCN1CCN(Cc2ccc(NC(=O)c3ccc(C)c(/C=C/c4cnc5[nH]ccc5c4OC)c3)cc2C(F)(F)F)CC1
- percent of control [10]: 5.4%
- percent of control [11]: 0.8%
